Where two headings read alike, the source gives them in different places.
Biological target: T1, Kv3.1 (Homo sapiens, UniProt P48547)
T1 construct: expressed in transfected cells
T1 sequence (P48547 1-511): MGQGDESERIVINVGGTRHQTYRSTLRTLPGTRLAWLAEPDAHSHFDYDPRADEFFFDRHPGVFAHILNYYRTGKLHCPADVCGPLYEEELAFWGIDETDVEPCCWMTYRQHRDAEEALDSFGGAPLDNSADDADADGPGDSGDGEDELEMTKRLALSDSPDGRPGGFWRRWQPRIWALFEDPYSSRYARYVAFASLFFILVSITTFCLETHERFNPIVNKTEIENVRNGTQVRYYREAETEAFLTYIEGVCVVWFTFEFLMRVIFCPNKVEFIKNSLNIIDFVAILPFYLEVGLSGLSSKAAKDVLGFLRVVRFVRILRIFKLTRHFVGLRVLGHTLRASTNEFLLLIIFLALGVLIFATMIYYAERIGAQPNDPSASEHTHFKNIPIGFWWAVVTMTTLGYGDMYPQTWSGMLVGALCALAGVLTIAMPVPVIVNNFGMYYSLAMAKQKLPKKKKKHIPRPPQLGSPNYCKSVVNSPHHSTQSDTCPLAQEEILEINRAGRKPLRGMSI
Assay: Kv3.1 automated patch clamp (Qube) cellular electrophysiology assay
Format: cell-based
From the text: In vitro, high-throughput cellular electrophysiology was employed to detect voltage-dependence of compounds in single concentration screening and IC50 determination for library and medicinal chemistry profiling compounds in 384 well plates.
HEK-293 cell lines stably expressing coding DNA for Kv3.1, 3.2, 3.3, and 3.4 were validated on an automated patch clamp (APC) platform, Qube from Sophion/Denmark. Cell cultures were maintained in DMEM cell growth media containing FBS and appropriate antibiotics at 37° C., 5% CO2 for a maximum of 20 passages. Intra- and extracellular (w. glucose) HEPES buffers containing various monovalent and divalent cations were adjusted to pH 7.2 and 7.4 respectively. Cells were harvested at 75% confluency and resuspended in extracellular buffer and added to wells. Negative pressure was applied to establish whole cell recording by APC.
Currents through activated channels were measured directly by APC by employing depolarization voltage steps. Baseline currents were established for the voltage-dependence protocols using a −80 mV holding potential and multiple test pulses at +10 mV or by 10 mV steps from −80 mV to +40 mV, respectively. Test compounds were added after baseline recordings followed by a 10 min incubation, and voltage-dependency protocol recordings. Data was corrected for baseline and leak currents (well based) and normalized for % potentiation (plate based). Two previously reported Kv3 positive modulators of varying potencies were used for run to run and plate to plate quality controls. A non-selective and potent positive modulator was used as a positive control. Percent potentiation was analyzed at −20 mV of the voltage-dependency protocol and voltage shift in channel activation was analyzed using the voltage step protocol from −80 mV to +40 mV. Selectivity was assessed against Kv3.2, Kv3.3, and Kv3.4 overexpressing cell lines using similar methods.

| EC50 (HEK-293 cell line stably expressing Kv3.1, automated patch clamp, 10 min incubation, read-out: EC50 Kv3.1) [µM] | SMILES | EC50 [µM] |
| --- | --- | --- |
| – | O=c1[nH]c2cccnc2n1-c1ccc(Oc2cccc3c2C2(CC2)CO3)nc1 [Example 1, 3-(6-spiro[2H-benzofuran-3,1′-cyclopropane]-4-yloxy-3-pyridyl)-1H-imidazo[4,5-b]pyridin-2-one] | 0.3 |
| – | O=c1[nH]c2cncnc2n1-c1ccc(Oc2cccc3c2C2(CC2)CO3)nc1 [Example 2, 9-(6-spiro[2H-benzofuran-3,1′-cyclopropane]-4-yloxy-3-pyridyl)-7H-purin-8-one] | 0.8 |
| – | Cc1ccc(Oc2ccc(-n3c(=O)[nH]c4cccnc43)cn2)cc1Cl [Example 3, 3-[6-(3-chloro-4-methyl-phenoxy)-3-pyridyl]-1H-imidazo[4,5-b]pyridin-2-one] | 1.6 |
| – | CC(C)(C)c1cc(C#N)ccc1Oc1ccc(-n2c(=O)[nH]c3cccnc32)cn1 [Example 4, 3-tert-butyl-4-[[5-(2-oxo-1H-imidazo[4,5-b]pyridin-3-yl)-2-pyridyl]oxy]benzonitrile] | 2 |
| – | CC(C)c1cc(Oc2ccc(-n3c(=O)[nH]c4cccnc43)cn2)ccc1C#N [Example 5, 2-isopropyl-4-[[5-(2-oxo-1H-imidazo[4,5-b]pyridin-3-yl)-2-pyridyl]oxy]benzonitrile] | 2.7 |
| – | O=c1[nH]c2cnccc2n1-c1ccc(Oc2cccc3c2C2(CC2)CO3)nc1 [Example 6, 1-(6-spiro[2H-benzofuran-3,1′-cyclopropane]-4-yloxy-3-pyridyl)-3H-imidazo[4,5-c]pyridin-2-one] | 2 |
| – | COc1cc(Oc2ccc(-n3c(=O)[nH]c4cc(F)cnc43)cn2)ccc1C [Example 7, 6-fluoro-3-[6-(3-methoxy-4-methyl-phenoxy)-3-pyridyl]-1H-imidazo[4,5-b]pyridin-2-one] | 2.2 |
| – | O=c1[nH]c2cccnc2n1-c1ccc(Oc2cccc3c2C2(CC2)CO3)c(F)c1 [Example 8, 3-(3-fluoro-4-spiro[2H-benzofuran-3,1′-cyclopropane]-4-yloxy-phenyl)-1H-imidazo[4,5-b]pyridin-2-one] | 2.3 |
| – | COc1cc(Oc2ccc(-n3c(=O)[nH]c4cc(C)cnc43)cn2)ccc1C [Example 9, 3-[6-(3-methoxy-4-methyl-phenoxy)-3-pyridyl]-6-methyl-1H-imidazo[4,5-b]pyridin-2-one] | 2.5 |
| – | O=c1[nH]c2ccccc2n1-c1ccc(Oc2cccc3c2C2(CC2)CO3)nc1 [Example 10, 3-(6-spiro[2H-benzofuran-3,1′-cyclopropane]-4-yloxy-3-pyridyl)-1H-benzimidazol-2-one] | 2.5 |
| – | Cc1cc(-n2c(=O)[nH]c3ccccc32)cnc1Oc1cccc2c1C1(CC1)CO2 [Example 11, 3-(5-methyl-6-spiro[2H-benzofuran-3,1′-cyclopropane]-4-yloxy-3-pyridyl)-1H-benzimidazol-2-one] | 2.8 |
| – | O=c1[nH]c2ccncc2n1-c1ccc(Oc2cccc3c2C2(CC2)CO3)nc1 [Example 12, 3-(6-spiro[2H-benzofuran-3,1′-cyclopropane]-4-yloxy-3-pyridyl)-1H-imidazo[4,5-c]pyridin-2-one] | 3.9 |
| – | O=c1[nH]c2ncccc2n1-c1ccc(Oc2cccc3c2C2(CC2)CO3)nc1 [Example 13, 1-(6-spiro[2H-benzofuran-3,1′-cyclopropane]-4-yloxy-3-pyridyl)-3H-imidazo[4,5-b]pyridin-2-one] | 3.4 |
| – | CC(C)c1cc(Oc2ccc(-n3c(=O)[nH]c4cc(F)cnc43)cn2)ccc1C#N [Example 14, 4-[[5-(6-fluoro-2-oxo-1H-imidazo[4,5-b]pyridin-3-yl)-2-pyridyl]oxy]-2-isopropyl-benzonitrile] | 2.7 |
| – | CC(C)c1cc(Oc2ccc(-n3c(=O)[nH]c4cncnc43)cn2)ccc1C#N [Example 15, 2-isopropyl-4-[[5-(8-oxo-7H-purin-9-yl)-2-pyridyl]oxy]benzonitrile] | 3.5 |
| – | CC(C)c1cc(Oc2ccc(-n3c(=O)[nH]c4cnccc43)cn2)ccc1C#N [Example 16, 2-isopropyl-4-[[5-(2-oxo-3H-imidazo[4,5-c]pyridin-1-yl)-2-pyridyl]oxy]benzonitrile] | 5.9 |
| – | CC(C)c1cc(Oc2ccc(-n3c(=O)[nH]c4cccnc43)cc2F)ccc1C#N [Example 17, 4-[2-fluoro-4-(2-oxo-1H-imidazo[4,5-b]pyridin-3-yl)phenoxy]-2-isopropyl-benzonitrile] | 4.7 |

| EC50 (HEK-293 cell line stably expressing Kv3.1, automated patch clamp, 10 min incubation, read-out: EC50 Kv3.1) [µM] | SMILES | EC50 [µM] |
| --- | --- | --- |
| – | CC(C)c1cc(Oc2ccc(-n3c(=O)[nH]c4cncnc43)cc2F)ccc1C#N [Example 18, 4-[2-fluoro-4-(8-oxo-7H-purin-9-yl)phenoxy]-2-isopropyl-benzonitrile] | 18.8 |
| – | CC(C)c1cc(Oc2ccc(-n3c(=O)[nH]c4ccccc43)cn2)ccc1C#N [Example 19, 2-isopropyl-4-[[5-(2-oxo-3H-benzimidazol-1-yl)-2-pyridyl]oxy]benzonitrile] | 15.6 |
| – | CC(C)(C)c1cc(C#N)ccc1Oc1ccc(-n2c(=O)[nH]c3ccccc32)cn1 [Example 20, 3-tert-butyl-4-[[5-(2-oxo-3H-benzimidazol-1-yl)-2-pyridyl]oxy]benzonitrile] | 12.2 |
| – | CCc1cc(Oc2ccc(-n3c(=O)[nH]c4ccccc43)cn2)ccc1C#N [Example 21, 2-ethyl-4-[[5-(2-oxo-3H-benzimidazol-1-yl)-2-pyridyl]oxy]benzonitrile] | 18.5 |
| – | CC(C)Oc1cc(Oc2ccc(-n3c(=O)[nH]c4ccccc43)cn2)ccc1C#N [Example 22, 2-isopropoxy-4-[[5-(2-oxo-3H-benzimidazol-1-yl)-2-pyridyl]oxy]benzonitrile] | 20.7 |
| – | O=c1[nH]c2ccccc2n1-c1ccc(Oc2cccc3c2C2(CC2)CO3)c(F)c1 [Example 23, 3-(3-fluoro-4-spiro[2H-benzofuran-3,1′-cyclopropane]-4-yloxy-phenyl)-1H-benzimidazol-2-one] | 3.5 |
| – | CC(C)(C)c1cc(C#N)ccc1Oc1ccc(-n2c(=O)[nH]c3cncnc32)cn1 [Example 24, 3-tert-butyl-4-[[5-(8-oxo-7H-purin-9-yl)-2-pyridyl]oxy]benzonitrile] | 4 |
| 5.9 | Cc1ccc(Oc2ccc(-n3c(=O)[nH]c4cncnc43)cn2)cc1OC(F)(F)F [Example 25, 9-[6-[4-methyl-3-(trifluoromethoxy)phenoxy]-3-pyridyl]-7H-purin-8-one] | – |
| – | CC(C)(C)c1cc(C#N)ccc1Oc1ccc(-n2c(=O)[nH]c3cnccc32)cn1 [Example 26, 3-tert-butyl-4-[[5-(2-oxo-3H-imidazo[4,5-c]pyridin-1-yl)-2-pyridyl]oxy]benzonitrile] | 4.7 |
| – | CC(C)(C)c1cc(C#N)ccc1Oc1ccc(-n2c(=O)[nH]c3cc(F)cnc32)cn1 [Example 27, 3-tert-butyl-4-[[5-(6-fluoro-2-oxo-1H-imidazo[4,5-b]pyridin-3-yl)-2-pyridyl]oxy]benzonitrile] | 5.5 |
| – | COc1cc(Oc2ccc(-n3c(=O)[nH]c4cc(Cl)cnc43)cn2)ccc1C [Example 28, 6-chloro-3-[6-(3-methoxy-4-methyl-phenoxy)-3-pyridyl]-1H-imidazo[4,5-b]pyridin-2-one] | 10 |
| – | COc1cc(Oc2ccc(-n3c(=O)[nH]c4cc(C(F)(F)F)cnc43)cn2)ccc1C [Example 29, 3-[6-(3-methoxy-4-methyl-phenoxy)-3-pyridyl]-6-(trifluoromethyl)-1H-imidazo[4,5-b]pyridin-2-one] | 5.7 |
| – | COc1cc(Oc2ccc(-n3c(=O)[nH]c4ncccc43)cn2)ccc1C [Example 30, 1-[6-(3-methoxy-4-methyl-phenoxy)-3-pyridyl]-3H-imidazo[4,5-b]pyridin-2-one] | 19.2 |
| – | COc1cc(Oc2ccc(-n3c(=O)[nH]c4ccncc43)cn2)ccc1C [Example 31, 3-[6-(3-methoxy-4-methyl-phenoxy)-3-pyridyl]-1H-imidazo[4,5-c]pyridin-2-one] | 21 |
| – | COc1cc(Oc2ccc(-n3c(=O)[nH]c4cnccc43)cn2)ccc1C [Example 32, 1-[6-(3-methoxy-4-methyl-phenoxy)-3-pyridyl]-3H-imidazo[4,5-c]pyridin-2-one] | 4.4 |
| – | COc1cc(Oc2ccc(-n3c(=O)[nH]c4cccnc43)cn2)ccc1C [Example 33, 3-[6-(3-methoxy-4-methyl-phenoxy)-3-pyridyl]-1H-imidazo[4,5-b]pyridin-2-one] | 3.4 |
| – | COc1cc(Oc2ccc(-n3c(=O)[nH]c4ccccc43)cn2)ccc1C [Example 34, 3-[6-(3-methoxy-4-methyl-phenoxy)-3-pyridyl]-1H-benzimidazol-2-one] | 5.2 |

— US20230124087A1, “KV3 ENHANCERS FOR THE TREATMENT OF COGNITIVE DISORDERS” (Hoffmann-La Roche Inc., priority 2020, published 2023)
